These results are taken from patent publication US20210214405A1, “PEPTIDE, METHOD AND COMPOSITION FOR MELANIN POLYMERIZATION AND HAIR DARKENING” (Renorigin Innovation Institute Co., Ltd., priority 2020, published 2021).

The nature of the assay: The polymerization of melanin (melanin pellet, absorbance at 400 nm; light microscope). In kind it is biochemical. To be noted: 0.025 mg/ml melanin treated with 50 μM peptide for 24 h. How it is done: 0.025 mg/ml melanin was treated with 50 μM peptide for 24 h. Data are represented as the means±SD from three independent experiments. ***p<0.001.
0.025 mg/ml melanin were treated with 50 μM peptides for 24 h, and then centrifuged at 10,000 g for 5 min. The supernatant was removed from the tube, leaving only the melanin pellet. The polymerization of melanin was quantified after boiling in 1 M NaOH for 1 hour and the absorbance was measured spectrophotometrically at 400 nm.

Turning to APRKNVRWCTISQ [SEQ ID NO: 2], the melanin polymerization entry is “did not show effects on melanin polymerization”.

For the sequence RMKKLGAPSI [SEQ ID NO: 15], the melanin polymerization entry is on record as “did not show effects on melanin polymerization”.

Consider CTISQPEWFKCRR [SEQ ID NO: 3], for which the melanin polymerization result was “did not show effects on melanin polymerization”.
